According to paper PMC4767605 (Cancer chemotherapy and pharmacology, 2016):
“And” between values parts separate entries of the source, which are not always exact repeats. Identical values can stand only once. Like-named read-outs stand apart in the source and are kept apart here.

[1] = ASP9853 Lead-in (n=20), single agent
[2] = Cohort 1 (n=6): ASP9853 25 mg + docetaxel 60 mg/m^2
[3] = Cohort 2 (n=4): ASP9853 25 mg + docetaxel 75 mg/m^2
[4] = Cohort 3 (n=3): ASP9853 37.5 mg + docetaxel 60 mg/m^2

Structure (SMILES): O.O.O=C(/C=C/c1ccc(Cl)cc1)N[C@@H](Cc1ccccn1)C(=O)NCC(=O)N1CCC(Oc2cc(C(F)(F)F)ncn2)CC1 [ASP9853, (2E)-3-(4-chlorophenyl)-N-[(1S)-2-oxo-2-{[2-oxo-2-(4-{[6-(trifluoromethyl)-4-pyrimidinyl]oxy}-1-piperidinyl)ethyl]amino}-1-(2-pyridinylmethyl)ethyl]acrylamide dehydrate]
- Toxicity noted in single-patient Cohort 1 (did not meet DLT criteria) (ASP9853 25 mg + docetaxel 60 mg/m^2): Grade 3 neutropenia
- Changes in liver function tests, vital signs, or electrocardiogram (ECGs) (ASP9853 + docetaxel): No clinically significant changes from baseline
- Neutropenia during treatment (laboratory evaluation) (ASP9853 + docetaxel): All patients experienced neutropenia
- Patients with AEs that led to treatment discontinuation (ASP9853 + docetaxel, all cohorts): Three
- AE potentially related to ASP9853: Anemia; Grade 3/4 [1]: 0 n (%)
- AE potentially related to ASP9853: Anemia; Grade All [1]: 0 n (%)
- AE potentially related to ASP9853: Asthenia; Grade 3/4 [1]: 0 n (%)
- AE potentially related to ASP9853: Asthenia; Grade All [1]: 1 (5) n (%)
- AE potentially related to ASP9853: Constipation; Grade 3/4 [1]: 0 n (%)
- AE potentially related to ASP9853: Constipation; Grade All [1]: 0 n (%)
- AE potentially related to ASP9853: Decreased appetite; Grade 3/4 [1]: 0 n (%)
- AE potentially related to ASP9853: Decreased appetite; Grade All [1]: 0 n (%)
- AE potentially related to ASP9853: Diarrhea; Grade 3/4 (only Grade 3) [1]: 0 n (%)
- AE potentially related to ASP9853: Diarrhea; Grade All [1]: 0 n (%)
- AE potentially related to ASP9853: Dizziness; Grade 3/4 [1]: 0 n (%)
- AE potentially related to ASP9853: Dizziness; Grade All [1]: 0 n (%)
- AE potentially related to ASP9853: Fatigue; Grade 3/4 (only Grade 3) [1]: 0 n (%)
- AE potentially related to ASP9853: Fatigue; Grade All [1]: 0 n (%)
- AE potentially related to ASP9853: Febrile neutropenia; Grade 3/4 [1]: 0 n (%)
- AE potentially related to ASP9853: Febrile neutropenia; Grade All [1]: 0 n (%)
- AE potentially related to ASP9853: Nausea; Grade 3/4 [1]: 0 n (%)
- AE potentially related to ASP9853: Nausea; Grade All [1]: 1(5) n (%)
- AE potentially related to ASP9853: Neutropenia; Grade 3/4 [1]: 0 n (%)
- AE potentially related to ASP9853: Neutropenia; Grade All [1]: 0 n (%)
- AE potentially related to ASP9853: Neutrophil count decreased; Grade 3/4 [1]: 0 n (%)
- AE potentially related to ASP9853: Neutrophil count decreased; Grade All [1]: 0 n (%)
- AE potentially related to ASP9853: Overall; Grade 3/4 [1]: 0 n (%)
- AE potentially related to ASP9853: Overall; Grade All [1]: 7 [35%] n (%) and 7 (35) n (%)
- AE potentially related to ASP9853: Vomiting; Grade 3/4 [1]: 0 n (%)
- AE potentially related to ASP9853: Vomiting; Grade All [1]: 1 (5) n (%)
- AE potentially related to ASP9853: White blood cell count decreased; Grade All [1]: 0 n (%)
- AE potentially related to ASP9853: Anemia; Grade 3/4 [2]: 0 n (%)
- AE potentially related to ASP9853: Anemia; Grade All [2]: 1 (17) n (%)
- AE potentially related to ASP9853: Asthenia; Grade 3/4 [2]: 0 n (%)
- AE potentially related to ASP9853: Asthenia; Grade All [2]: 0 n (%)
- AE potentially related to ASP9853: Constipation; Grade 3/4 [2]: 0 n (%)
- AE potentially related to ASP9853: Constipation; Grade All [2]: 1 (17) n (%)
- AE potentially related to ASP9853: Decreased appetite; Grade 3/4 [2]: 0 n (%)
- AE potentially related to ASP9853: Decreased appetite; Grade All [2]: 0 n (%)
- AE potentially related to ASP9853: Diarrhea; Grade 3/4 (only Grade 3) [2]: 0 n (%)
- AE potentially related to ASP9853: Diarrhea; Grade All [2]: 1 (17) n (%)
- AE potentially related to ASP9853: Dizziness; Grade 3/4 [2]: 0 n (%)
- AE potentially related to ASP9853: Dizziness; Grade All [2]: 0 n (%)
- AE potentially related to ASP9853: Fatigue; Grade 3/4 (only Grade 3) [2]: 0 n (%)
- AE potentially related to ASP9853: Fatigue; Grade All [2]: 2 (33) n (%)
- AE potentially related to ASP9853: Febrile neutropenia; Grade 3/4 [2]: 0 n (%)
- AE potentially related to ASP9853: Febrile neutropenia; Grade All [2]: 0 n (%)
- AE potentially related to ASP9853: Nausea; Grade 3/4 [2]: 0 n (%)
- AE potentially related to ASP9853: Nausea; Grade All [2]: 0 n (%)
- AE potentially related to ASP9853: Neutropenia; Grade 3/4 [2]: 1 (17) n (%)
- AE potentially related to ASP9853: Neutropenia; Grade All [2]: 1 (17) n (%)
- AE potentially related to ASP9853: Neutrophil count decreased; Grade 3/4 [2]: 0 n (%)
- AE potentially related to ASP9853: Neutrophil count decreased; Grade All [2]: 0 n (%)
- AE potentially related to ASP9853: Overall; Grade 3/4 [2]: 2 (33) n (%)
- AE potentially related to ASP9853: Overall; Grade All [2]: 5 (83) n (%)
- AE potentially related to ASP9853: Vomiting; Grade 3/4 [2]: 0 n (%)
- AE potentially related to ASP9853: Vomiting; Grade All [2]: 0 n (%)
- AE potentially related to ASP9853: White blood cell count decreased; Grade All [2]: 1 (17) n (%)
- SAE considered related to ASP9853: diarrhea (Cohort 2): 1 n
- SAE considered related to ASP9853: febrile neutropenia (Cohort 2): 2 n
- AE potentially related to ASP9853: Anemia; Grade 3/4 [3]: 0 n (%)
- AE potentially related to ASP9853: Anemia; Grade All [3]: 1 (25) n (%)
- AE potentially related to ASP9853: Asthenia; Grade 3/4 [3]: 0 n (%)
- AE potentially related to ASP9853: Asthenia; Grade All [3]: 2 (50) n (%)
- AE potentially related to ASP9853: Constipation; Grade 3/4 [3]: 0 n (%)
- AE potentially related to ASP9853: Constipation; Grade All [3]: 0 n (%)
- AE potentially related to ASP9853: Decreased appetite; Grade 3/4 [3]: 0 n (%)
- AE potentially related to ASP9853: Decreased appetite; Grade All [3]: 1 (25) n (%)
- AE potentially related to ASP9853: Diarrhea; Grade 3/4 (only Grade 3) [3]: 1 (25) n (%)
- AE potentially related to ASP9853: Diarrhea; Grade All [3]: 2 (50) n (%)
- AE potentially related to ASP9853: Dizziness; Grade 3/4 [3]: 0 n (%)
- AE potentially related to ASP9853: Dizziness; Grade All [3]: 0 n (%)
- AE potentially related to ASP9853: Fatigue; Grade 3/4 (only Grade 3) [3]: 1 (25) n (%)
- AE potentially related to ASP9853: Fatigue; Grade All [3]: 3 (75) n (%)
- AE potentially related to ASP9853: Febrile neutropenia; Grade 3/4 [3]: 2 (50) n (%)
- AE potentially related to ASP9853: Febrile neutropenia; Grade All [3]: 2 (50) n (%)
- AE potentially related to ASP9853: Nausea; Grade 3/4 [3]: 0 n (%)
- AE potentially related to ASP9853: Nausea; Grade All [3]: 2 (50) n (%)
- AE potentially related to ASP9853: Neutropenia; Grade 3/4 [3]: 0 n (%)
- AE potentially related to ASP9853: Neutropenia; Grade All [3]: 0 n (%)
- AE potentially related to ASP9853: Neutrophil count decreased; Grade 3/4 [3]: 0 n (%)
- AE potentially related to ASP9853: Neutrophil count decreased; Grade All [3]: 0 n (%)
- AE potentially related to ASP9853: Overall; Grade 3/4 [3]: 3 (75) n (%)
- AE potentially related to ASP9853: Overall; Grade All [3]: 3 (75) n (%)
- AE potentially related to ASP9853: Vomiting; Grade 3/4 [3]: 0 n (%)
- AE potentially related to ASP9853: Vomiting; Grade All [3]: 3 (75) n (%)
- AE potentially related to ASP9853: White blood cell count decreased; Grade All [3]: 0 n (%)
- AE potentially related to ASP9853: Anemia; Grade 3/4 [4]: 0 n (%)
- AE potentially related to ASP9853: Anemia; Grade All [4]: 0 n (%)
- AE potentially related to ASP9853: Asthenia; Grade 3/4 [4]: 0 n (%)
- AE potentially related to ASP9853: Asthenia; Grade All [4]: 0 n (%)
- AE potentially related to ASP9853: Constipation; Grade 3/4 [4]: 0 n (%)
- AE potentially related to ASP9853: Constipation; Grade All [4]: 1 (33) n (%)
- AE potentially related to ASP9853: Decreased appetite; Grade 3/4 [4]: 0 n (%)
